The source made the active and inactive calls. The calls are words filed in the database; no cut-off is given here.
Key:
[1] = target: T1, 2-5A-dependent ribonuclease (Homo sapiens, UniProt Q05823); assay: Induction of recombinant human RNase L activity expressed in Escherichia coli using F-5'-r(C11U2C7)-3' as substrate by polyacrylamide gel electrophoresis
T1 sequence (Q05823 whole entry): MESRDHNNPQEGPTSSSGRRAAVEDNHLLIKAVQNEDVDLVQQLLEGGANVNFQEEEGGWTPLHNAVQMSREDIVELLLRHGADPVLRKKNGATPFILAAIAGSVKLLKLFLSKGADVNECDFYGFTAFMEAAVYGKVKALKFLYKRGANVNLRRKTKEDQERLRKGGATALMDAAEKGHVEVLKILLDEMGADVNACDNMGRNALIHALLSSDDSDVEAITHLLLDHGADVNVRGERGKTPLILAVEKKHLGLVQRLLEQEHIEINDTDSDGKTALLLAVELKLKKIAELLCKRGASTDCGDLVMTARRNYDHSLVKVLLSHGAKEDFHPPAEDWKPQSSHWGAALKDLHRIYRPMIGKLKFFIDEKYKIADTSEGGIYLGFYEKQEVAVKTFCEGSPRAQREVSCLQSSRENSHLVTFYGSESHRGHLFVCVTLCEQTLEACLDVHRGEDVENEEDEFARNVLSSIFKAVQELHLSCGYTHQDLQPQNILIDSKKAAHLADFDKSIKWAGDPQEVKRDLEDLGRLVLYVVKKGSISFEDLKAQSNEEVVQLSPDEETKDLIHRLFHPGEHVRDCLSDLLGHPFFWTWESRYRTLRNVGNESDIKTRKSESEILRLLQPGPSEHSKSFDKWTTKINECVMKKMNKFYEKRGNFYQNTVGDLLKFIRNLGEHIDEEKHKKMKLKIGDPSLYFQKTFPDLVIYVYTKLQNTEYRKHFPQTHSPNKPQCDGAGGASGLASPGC

[2] = target: T2, 2-5A-dependent ribonuclease (Homo sapiens) (UniProt Q05823); assay: Ratio of p5'A2'p5'A2'p5'A2'p5'A EC50 to compound EC50 for recombinant human RNase L activity
T2 sequence (whole entry): T1 sequence (Q05823 whole entry)

HeLa [3] = assay: Cytotoxicity against human HeLa cells assessed as cell growth inhibition after 6 to 24 hrs by counting chamber analysis; type: functional, cell-based
[4] = Half life of the compound assessed as snake venom phosphodiesterase-mediated compound hydrolysis at 9 uM by HPLC analysis; type: ADME; details: serpentes
HeLa [5] = assay: Cytotoxicity against human HeLa cells assessed as cell growth at 1 uM after 6 to 24 hrs by counting chamber analysis relative to control; type: functional; details: read-out: Activity
HeLa [6] = assay: Cytotoxicity against human HeLa cells assessed as cell growth inhibition at 0.1 to 1 uM after 6 to 24 hrs by counting chamber analysis; type: functional, cell-based

| Compound | EC50 ([1]; read-out: EC50) [nM] | Ratio EC50 [2] | other results |
| --- | --- | --- | --- |
| C[C@H]1O[C@@H](n2cc(F)c(=O)[nH]c2=O)[C@H](O)[C@@H]1O | – | – | growth inhibition (GI) (HeLa [3]): Dose-dependent effect |
| Nc1ncnc2c1ncn2[C@@H]1O[C@H](COP(=O)(O)O[C@@H]2[C@H](O)[C@@H](COP(=O)(O)O[C@@H]3[C@H](O)[C@@H](COP(=O)(O)O[C@@H]4[C@H](O)[C@@H](CO)O[C@H]4n4cnc5c(N)ncnc54)O[C@H]3n3cnc4c(N)ncnc43)O[C@H]2n2cnc3c(N)ncnc32)[C@@H](O)[C@H]1O | – | – | EC50 [1]: Not Active |
| Cc1nc2c(N)ncnc2n1[C@@H]1O[C@H](COP(=O)(O)O[C@@H]2[C@H](O)[C@@H](COP(=O)(O)O[C@@H]3[C@H](O)[C@@H](COP(=O)(O)O[C@@H]4[C@H](O)[C@@H](C)O[C@H]4n4cc(F)c(=O)[nH]c4=O)O[C@H]3n3cnc4c(N)ncnc43)O[C@H]2n2cnc3c(N)ncnc32)[C@@H](O)[C@H]1O | 0.45 | 28.9 | half-life at 9 µM [4]: 9 min; growth at 1 µM (HeLa [5]): 25%; growth inhibition (GI) (HeLa [3]): Dose-dependent effect |
| Nc1ncnc2c1ncn2[C@@H]1O[C@H](COP(=O)(O)O[C@@H]2[C@H](O)[C@@H](COP(=O)(O)O[C@@H]3[C@H](O)[C@@H](COP(=O)(O)O[C@@H]4[C@H](O)[C@@H](COP(=O)(O)O)O[C@H]4n4cnc5c(N)ncnc54)O[C@H]3n3cnc4c(N)ncnc43)O[C@H]2n2cnc3c(N)ncnc32)[C@@H](O)[C@H]1O | 12.9 | – | growth inhibition (GI) (HeLa [6]): inactive; half-life at 9 µM [4]: 6.4 min |

Further lines, with some results ahead:

| EC50 ([1]; read-out: EC50) [nM] | Ratio EC50 [2] | Compound | other results |
| --- | --- | --- | --- |
| 20.3 | 0.64 | Cc1nc2c(N)ncnc2n1[C@@H]1O[C@H](COP(=O)(O)O[C@@H]2[C@H](O)[C@@H](COP(=O)(O)O[C@@H]3[C@H](O)[C@@H](COP(=O)(O)O[C@H]4[C@@H](O)[C@H](n5cnc6c(N)ncnc65)O[C@@H]4CO)O[C@H]3n3cnc4c(N)ncnc43)O[C@H]2n2cnc3c(N)ncnc32)[C@@H](O)[C@H]1O | – |
| 84 | 0.15 | Nc1ncnc2c1ncn2[C@@H]1O[C@H](COP(=O)(O)O[C@@H]2[C@H](O)[C@@H](COP(=O)(O)O[C@@H]3[C@H](O)[C@@H](COP(=O)(O)O[C@@H]4[C@H](O)[C@@H](COP(=O)(O)O)O[C@H]4n4ccc(=O)[nH]c4=O)O[C@H]3n3cnc4c(N)ncnc43)O[C@H]2n2cnc3c(N)ncnc32)[C@@H](O)[C@H]1O | – |
| 2.3 | 5.6 | Cc1nc2c(N)ncnc2n1[C@@H]1O[C@H](COP(=O)(O)O[C@@H]2[C@H](O)[C@@H](COP(=O)(O)O[C@@H]3[C@H](O)[C@@H](COP(=O)(O)O[C@@H]4[C@H](O)[C@@H](CO)O[C@H]4n4cnc5c(N)ncnc54)O[C@H]3n3cnc4c(N)ncnc43)O[C@H]2n2cnc3c(N)ncnc32)[C@@H](O)[C@H]1O | – |
| 134 | 0.1 | Cc1nc2c(N)ncnc2n1[C@@H]1O[C@H](COP(=O)(O)O[C@@H]2[C@H](O)[C@@H](COP(=O)(O)O[C@@H]3[C@H](O)[C@@H](COP(=O)(O)O[C@H]4[C@@H](O)[C@H](n5ccc(=O)[nH]c5=O)O[C@@H]4CO)O[C@H]3n3cnc4c(N)ncnc43)O[C@H]2n2cnc3c(N)ncnc32)[C@@H](O)[C@H]1O | – |
| 2.4 | 5.4 | Cc1nc2c(N)ncnc2n1[C@@H]1O[C@H](COP(=O)(O)O[C@@H]2[C@H](O)[C@@H](COP(=O)(O)O[C@@H]3[C@H](O)[C@@H](COP(=O)(O)O[C@@H]4[C@H](O)[C@@H](CO)O[C@H]4n4ccc(=O)[nH]c4=O)O[C@H]3n3cnc4c(N)ncnc43)O[C@H]2n2cnc3c(N)ncnc32)[C@@H](O)[C@H]1O | – |
| 2.7 | 4.8 | Cc1nc2c(N)ncnc2n1[C@@H]1O[C@H](COP(=O)(O)O[C@@H]2[C@H](O)[C@@H](COP(=O)(O)O[C@@H]3[C@H](O)[C@@H](COP(=O)(O)O[C@@H]4[C@H](O)[C@@H](COP(=O)(O)O)O[C@H]4n4ccc(=O)[nH]c4=O)O[C@H]3n3cnc4c(N)ncnc43)O[C@H]2n2cnc3c(N)ncnc32)[C@@H](O)[C@H]1O | – |
